Measurements published in ChEMBL document CHEMBL5036354, “New Insights into the Structure-Activity Relationship and Neuroprotective Profile of Benzodiazepinone Derivatives of Neurounina-1 as Modulators of the Na+/Ca2+ Exchanger Isoforms” (J Med Chem, 2021).
Activity calls are given as the source filed them. No cut-off for these calls is given here.

Experiments:
[1] = system: Cortical neurone; assay: Neuroprotective activity against rat primary cortical neurons assessed as reduction in cell injury at 10 uM preincubated with compound followed by compound washout and OGD and RX exposure by MTT assay; type: functional, cell-based
[2] = system: BHK; assay: Activation of dog NCX1 expressed in BHK cells assessed as increase in Na+ free solution induced calcium level at 0.1 to 10 uM by fluo-4 AM dye based assay; type: cell-based; conditions: Canis lupus familiaris, filed as activator, dose 0.1-10 µM
[3] = Inhibition of dog NCX1 expressed in BHK cells assessed as decrease in Na+ free solution induced calcium level by patch-clamp electrophysiology assay; type: cell-based; conditions: Canis lupus familiaris
[4] = system: Cortical neurone; assay: Neuroprotective activity against rat primary cortical neurons assessed as reduction in cell injury under hypoxic condition by MTT assay; type: functional, cell-based; conditions: dose 10.0 µM
[5] = system: Cortical neurone; assay: Neuroprotective activity against rat primary cortical neurons assessed as reduction in cell injury under RX and chemical hypoxia condition by MTT assay; type: functional, cell-based; conditions: dose 10.0 µM
[6] = system: BHK; assay: Activation of dog NCX1 expressed in BHK cells assessed as increase in Na+ free solution induced calcium level at 10 uM by fluo-2 AM dye based assay; type: cell-based; conditions: Canis lupus familiaris, filed as activator
[7] = system: BHK; assay: Activation of dog NCX3 expressed in BHK cells assessed as increase in Na+ free solution induced calcium level at 0.1 to 10 uM by fluo-4 AM dye based assay; type: cell-based; conditions: Canis lupus familiaris, filed as activator, dose 0.1-10 µM
[8] = system: BHK; assay: Activation of dog NCX3 expressed in BHK cells assessed as increase in Na+ free solution induced calcium level at 10 uM by fluo-2 AM dye based assay; type: cell-based; conditions: Canis lupus familiaris, filed as activator
[9] = system: BHK; assay: Activation of dog NCX1 expressed in BHK cells assessed as forward NCX current at 10 uM at -120 mV holding potential by whole-cell patch clamp electrophysiology method; type: cell-based; conditions: Canis lupus familiaris, filed as activator
[10] = system: BHK; assay: Activation of dog NCX1 expressed in BHK cells assessed as reverese NCX current at 10 uM at +60 mV holding potential by whole-cell patch clamp electrophysiology method; type: cell-based; conditions: Canis lupus familiaris, filed as activator
[11] = system: BHK; assay: Activation of dog NCX3 expressed in BHK cells assessed as forward NCX current at 10 uM at -120 mV holding potential by whole-cell patch clamp electrophysiology method; type: cell-based; conditions: Canis lupus familiaris, filed as activator
[12] = system: BHK; assay: Activation of dog NCX3 expressed in BHK cells assessed as reverse NCX current at 10 uM at + 60 mV holding potential by whole-cell patch clamp electrophysiology method; type: cell-based; conditions: Canis lupus familiaris, filed as activator
[13] = system: BHK; assay: Inhibition of dog NCX1 expressed in BHK cells assessed as decrease in Na+ free solution induced calcium level at 0.01 to 10 uM by Fluo-4 AM dye based assay; type: cell-based; conditions: Canis lupus familiaris, dose 0.01-10 µM
[14] = system: BHK; assay: Inhibition of dog NCX1 expressed in BHK cells assessed as decrease in Na+ free solution induced calcium level at 10 uM by Fluo-2 AM dye based assay; type: cell-based; conditions: Canis lupus familiaris

SMILES	Activity [1]	Activity [2]	IC50 [3]	Activity [4]	Activity [5]	Activity [6]	Activity [7]	Activity [8]	Activity [9]	Activity [10]	Activity [11]	Activity [12]	inhibition [13]	inhibition [14]
O=C1CN=C(c2ccccc2Cl)c2cc([N+](=O)[O-])ccc2N1CN1CCCC1	Active	Active	10 µM	Dose-Dependent Effect	Dose-Dependent Effect	Active								
CC1CCCCN1C(=O)CN1C(=O)CN=C(c2ccccc2)c2cc([N+](=O)[O-])ccc21 (stereo not drawn)		Active		inactive		Active	Active	Active	Active	Active	Active	Active		
O=C1CN=C(c2ccccc2)c2cc([N+](=O)[O-])ccc2N1CCN1CCCC1				inactive									Active	Active
